From US6423545B1, “Unmarked deletion mutants of mycobacteria and methods of using same” (Albert Einstein College of Medicine of Yeshiva University, priority 1999, dated 2002)
“Also recorded” adds a separate entry of the source.

Columns and labels:
[1] = tested on: E. coli; details: AEC alone; cited from earlier work
[2] = tested on: M. bovis BCG substrain Pasteur; type: cell-based, Mycobacterium bovis BCG
[3] = tested on: aspartokinase; details: enzyme of the first step of the aspartate amino acid family pathway; cited from earlier work
[4] = tested on: C. glutamicum; details: AEC alone versus with threonine; cited from earlier work
[5] = tested on: M. tuberculosis H37Rv; type: cell-based, Mycobacterium tuberculosis

Row | Compound | inhibition of growth [1] | inhibitory effect upon growth [2] | inhibition of aspartokinase [3] | inhibition of growth [4] | inhibitory effect upon growth [5]
1 | NCCSC[C@H](N)C(=O)O [AEC, S-(β-aminoethyl)-L-cysteine] | capable of inhibiting the growth of E. coli | neither AEC or Thr alone have an inhibitory effect; also recorded: the combination of the two does inhibit growth, with BCG experiencing the greatest inhibition | inhibits aspartokinase | requires the addition of threonine to inhibit the growth of C. glutamicum | neither AEC or Thr alone have an inhibitory effect; also recorded: the combination of the two does inhibit growth
2 | C[C@@H](O)[C@H](N)C(=O)O [Thr, threonine] | – | neither AEC or Thr alone have an inhibitory effect | – | – | neither AEC or Thr alone have an inhibitory effect
